Measured values taken from patent publication US12656349B2, “Measurement of bevacizumab-insensitive vascular endothelial growth factor-a” (Board of Regents, The University of Texas System, priority 2019, dated 2026).

Key:
parental ES2 cells = assay: Nude mice with s.c. tumors from parental ES2 cells, tumor volume and plasma human VEGF; type: in vivo
Method: (§1) Animal studies were conducted in compliance with protocols approved by the UTMDACC Institutional Animal Care and Use Committee. Four-week-old female nude mice (purchased from UTMDACC animal facility) were used to propagate xenografts. To evaluate VEGF levels in ascites, mice were inoculated i.p, with 1×10^6 ES2 VEGF^+/+ cells, and euthanized by CO2 asphyxiation upon formation of morbid ascites (median survival time of 3 weeks), To evaluate the effects of sEVs, mice were inoculated i.p. with 2×10^6 GFP-expressing ES2 VEGF^−/− cells. […] Mice were treated with these agents i.p. 3 times a week for 2 weeks and thereafter euthanized. […] The 6 doses of sEVs at 500 μg per dose was based on the average volume of ascites and concentration of tumor-derived sEV-VEGF in ascites that forms in mice with i.p. xenografts derived from ES2 VEGF^+/+ cells (FIGS. 15A, 15B). Following euthanasia, volumes of ascites were measured. GFP-expressing tumors were visualized under a Leica MZMLIII stereomicroscope equipped with a GFP filter set and digital camera. Images were captured by using Picture Frame software (Optronics). Tumor burden was quantified by measuring areas of fluorescence signals within the abdominal cavity in captured images by using Image Pro Plus software (Media Cybernetics) as performed previously (Ko et al., 2009). To visualize intratumoral blood vessels, sections of omental tumor tissues, frozen in Optimal Cutting Temperature compound (Thermo Fisher Scientific), were stained with Ab to GFP (1:500 dilution) and CD31 (1:50 dilution) and with DAPI, and viewed under a Nikon 80i fluorescence microscope. Numbers of intratumoral CD31^+ cells were counted in 5 random 100× fields per section and an average score was determined for each mouse. To evaluate circulating VEGF levels, mice were inoculated s.c. with 5×10^6 ES2 VEGF^+/+ cells or HCT116 VEGF^+/+ cells. At 7 days thereafter when tumors were palpable, blood samples were collected retro-orbitally. […] Volumes of s.c. tumors were calculated from 2 perpendicular measurements of tumor diameters taken using calipers. […]

HUVEC = assay: Tube formation assay in HUVEC; type: cell-based, human
Method: (§2) Uptake of sEVs was blocked by treating HUVEC with chlorpromazine (15 μM) or dynasore (50 μM) for 30 min prior to addition of sEVs. As a negative control, HUVEC were pretreated with DMSO solvent (0.1%). VEGFR signaling was blocked by treating HUVEC with axitinib (1 nM) or vandetanib (1 μM) for 2 h or with neutralizing Ab to VEGFR2 (250 ng/mL) for 1 h prior to addition of sEVs or recombinant VEGF. […] Thereafter, mixtures were added to HUVEC cultures. To detect intracellular VEGF, cancer cells where indicated were incubated at 37° C. for 6 h with brefeldin A (BioLegend) (5 μg/mL) to block protein secretion and then harvested.
Wells of 96-well plates were coated with growth factor-reduced Matrigel (BD Biosciences) (50 μL/well) and incubated at 37° C. for 30 min. HUVEC (10^4 cells/well) were then seeded in FBS-free Medium 199 without or with addition of sEVs (100 μg/mL) or recombinant VEGF (1 ng/mL), or seeded in whole or sEV-depleted conditioned media. Following incubation at 37° C. for 4 h, capillary tube structures were visualized under a Nikon TS100 light microscope attached to a digital camera. In each experiment, images of 2 to 3 random 100× fields of each well were captured by using NIS Element BR 4 software (Nikon). The number of tubes in each field was quantified by using NIH Image) software with Angiogenesis Analyzer plugin, and an average calculated for each well. […]

parental HCT116 cells = assay: Nude mice with s.c. tumors from parental HCT116 cells, tumor volume and plasma human VEGF; type: in vivo
Method: as §1

VEGFR2 = VEGFR2 phosphorylation in HUVEC (immunoblot); type: cell-based, human
Method: as §2
Extracts were prepared by lysing whole cells and sEVs in M-PER buffer (Thermo Fisher Scientific). Protein concentrations of lysates were determined by Bradford assay (BioRad). Lysates were separated by SDS-polyacrylamide gel electrophoresis under non-reducing conditions to detect VEGF and under reducing conditions to detect other proteins, and then transferred to polyvinylidene difluoride membrane (GE Healthcare). Membranes were blocked with 5% non-fat milk in Tris-buffered saline with 0.1% Tween-20 (TBS-T), incubated with primary Ab at 4° C. for 16 h, and then washed with TBS-T buffer. Primary Ab were used at the following dilutions: 1:1000 (for Ab to TSG101, α-actinin-4, HSP90B1, calnexin, phospho-VEGFR2, VEGFR2, VEGF); 1:2000 (for Ab to HSP70); 1:5000 (for Ab to actin). Thereafter, membranes were incubated with 1-IRP-conjugated secondary Ab (1:5000 dilution), washed and visualized with ECL detection reagent (Millipore). Immunoblot data was verified in 3 independent experiments.

[1] = tested on: VEGF in cancer cell-conditioned media; assay: Quantification of unbound bevacizumab in whole and sEV-depleted cancer cell-conditioned media (ELISA); type: binding, human
Method: Samples of plasma and ascites (diluted 1:10 in PBS) and conditioned media were centrifuged at 2,400×g at 4° C. for 10 min to remove intact cells and cell debris. Thereafter, supernatants were filtered through a 0.2 μm pore size filter to remove larger particles. A 300 μL aliquot of filtrate was retained for analysis of VEGF. The remainder of the filtrate was centrifuged at 100,000×g at 4° C. for 18 h to remove sEVs. Thereafter, the supernatant (comprising of sEV-depleted sample) was assayed for VEGF.
Wells of 96-well High Bind microplates were coated with recombinant VEGF (100 ng) at RT for 16 h, After washing three times with wash buffer (R&D Systems), wells were blocked with 10% goat serum for 1 h and washed again. […] Absorbance was read at 450 nm.

ES2 VEGF^−/− cells = assay: Nude mice with i.p. ES2 VEGF−/− xenografts administered sEVs or recombinant VEGF; type: in vivo; details: vs control Ig
Method: Animal studies were conducted in compliance with protocols approved by the UTMDACC Institutional Animal Care and Use Committee. Four-week-old female nude mice (purchased from UTMDACC animal facility) were used to propagate xenografts. To evaluate VEGF levels in ascites, mice were inoculated i.p, with 1×10^6 ES2 VEGF^+/+ cells, and euthanized by CO2 asphyxiation upon formation of morbid ascites (median survival time of 3 weeks), To evaluate the effects of sEVs, mice were inoculated i.p. with 2×10^6 GFP-expressing ES2 VEGF^−/− cells. […] Mice were treated with these agents i.p. 3 times a week for 2 weeks and thereafter euthanized. […] The 6 doses of sEVs at 500 μg per dose was based on the average volume of ascites and concentration of tumor-derived sEV-VEGF in ascites that forms in mice with i.p. xenografts derived from ES2 VEGF^+/+ cells (FIGS. 15A, 15B). Following euthanasia, volumes of ascites were measured. GFP-expressing tumors were visualized under a Leica MZMLIII stereomicroscope equipped with a GFP filter set and digital camera. Images were captured by using Picture Frame software (Optronics). Tumor burden was quantified by measuring areas of fluorescence signals within the abdominal cavity in captured images by using Image Pro Plus software (Media Cybernetics) as performed previously (Ko et al., 2009). To visualize intratumoral blood vessels, sections of omental tumor tissues, frozen in Optimal Cutting Temperature compound (Thermo Fisher Scientific), were stained with Ab to GFP (1:500 dilution) and CD31 (1:50 dilution) and with DAPI, and viewed under a Nikon 80i fluorescence microscope. Numbers of intratumoral CD31^+ cells were counted in 5 random 100× fields per section and an average score was determined for each mouse. To evaluate circulating VEGF levels, mice were inoculated s.c. with 5×10^6 ES2 VEGF^+/+ cells or HCT116 VEGF^+/+ cells. At 7 days thereafter when tumors were palpable, blood samples were collected retro-orbitally. […] Volumes of s.c. tumors were calculated from 2 perpendicular measurements of tumor diameters taken using calipers. Pre- and post-treatment plasma samples were pre-cleared with Protein G Sepharose 4 Fast Flow (GE Healthcare) at 4° C. for 16 h to remove Ab-bound VEGF and thereafter were assayed for VEGF by ELISA.

sEV-VEGF = target: T1, sEV-VEGF (Homo sapiens, UniProt P15692); assay: Flow cytometric analysis of binding of coupled microbeads to VEGF on the surface of sEVs; details: exo-FITC fluorescence
T1 construct: Parental ES2, SKOV3, HCT116 and 786-0 cell lines were purchased from ATCC; endogenous in cells; host or cells: sEVs of parental (VEGF+/+) ES2 and HCT116 cells
T1 sequence (P15692 27-215 isoform P15692-2): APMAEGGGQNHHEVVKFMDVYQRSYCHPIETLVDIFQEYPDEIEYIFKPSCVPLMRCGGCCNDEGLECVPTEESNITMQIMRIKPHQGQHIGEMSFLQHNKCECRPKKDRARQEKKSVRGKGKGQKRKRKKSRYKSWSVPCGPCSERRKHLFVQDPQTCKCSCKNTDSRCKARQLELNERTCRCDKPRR
Method: To detect sEV-associated proteins by using Ab-coupled microbeads, acquisition and analysis of flow cytometry data were performed using a FACSCalibur™ cytometer equipped with CellQuest™ Pro software (BD Biosciences). […] Thereafter, microbeads were incubated with sEVs (100 μg, approximately 2×10^8 vesicles) at 4° C. for 16 h with rotation, washed with 1% BSA in PBS, stained with exo-FITC dye, and then acquired. Binding of Ab to protein on the surface of sEVs was evaluated by analyzing exo-FITC fluorescence in the gated population of singlet microbeads. A minimum of 10,000 gated events was analyzed for each sample. […] Following washing, microbeads were acquired and PerCP fluorescence analyzed in the gated population of singlet microbeads. […] Three independent experiments were performed for each assay. Contour plots were generated by using CellQuest™ Pro software.

[2] = endothelial cells stimulated with VEGF+/+ sEVs
[3] = endothelial cells stimulated with recombinant VEGF

With “bevacizumab: humanized monoclonal antibody to human vascular endothelial growth factor (VEGF)” the “sEV-VEGF levels in plasma” value (parental ES2 cells; ES2, estimated from difference between whole and sEV-depleted plasma, following treatment, P<0,01) was “increased”, the “non-sEV-VEGF levels in plasma” value (parental ES2 cells; ES2, sEV-depleted plasma, following treatment, P<0.05) was “decreased” and the Tumor growth (parental ES2 cells; s.c. ES2 tumors, treatment for one week) was “did not inhibit”. The Tube formation (HUVEC; [2]) was “not”, the Tube formation (HUVEC; [3]) was “blocked” and the “sEV-VEGF levels in plasma” value (parental HCT116 cells; HCT116, estimated from difference between whole and sEV-depleted plasma, following treatment, P<0.05) was “increased”. The “non-sEV-VEGF levels in plasma” value (parental HCT116 cells; HCT116, sEV-depleted plasma, following treatment, P<0.001) was “decreased”, the Tumor growth (parental HCT116 cells; s.c. HCT116 tumors, treatment for one week) was “did not inhibit” and the VEGFR2 phosphorylation (VEGFR2; [2]) was “not”. For the same substance, the VEGFR2 phosphorylation (VEGFR2; [3]) was “blocked”, the VEGFR2 phosphorylation (VEGFR2; endothelial cells stimulated with sEV-depleted media) was “completely blocked” and the VEGFR2 phosphorylation (VEGFR2; endothelial cells stimulated with whole media) was “only partially inhibited”. For the same substance, the “Levels of unbound bevacizumab in whole media compared with sEV-depleted media” value ([1]; cancer cell-conditioned media incubated with bevacizumab) was “almost identical”, the Unbound bevacizumab levels ([1]; sEV-depleted media to which recombinant VEGF189 had been added) was “decrease” and the Angiogenesis (ES2 VEGF^−/− cells; mice administered VEGF+/+ sEVs) was “not”. The Ascites (ES2 VEGF^−/− cells; mice administered VEGF+/+ sEVs) was “not”, the Tumor growth (ES2 VEGF^−/− cells; mice administered VEGF+/+ sEVs) was “not” and the Tumor growth (ES2 VEGF^−/− cells; mice administered recombinant VEGF189, 5 mg/kg i.p. 3 times a week for 2 weeks, P<0.001) was “inhibited”. The Angiogenesis (ES2 VEGF^−/− cells; mice administered recombinant VEGF189, P<0.0001) was “inhibited” and the Ascites (ES2 VEGF^−/− cells; mice administered recombinant VEGF189, P<0.001) was “inhibited”.

“VEGFR1/R2-Fc: chimera of the ligand-binding domains of VEGFR1 and VEGFR2 fused to the Fc portion of human IgG1” was tested, and the “Binding to VEGF+/+ sEVs” value (sEV-VEGF; coupled microbeads incubated with VEGF+/+ sEVs) was “bound” and the “Binding to VEGF−/− sEVs” value (sEV-VEGF; coupled microbeads incubated with VEGF−/− sEVs (negative control)) was “not”.
